Measured values from patent US9624245B2, “Macrocyclic compounds as HCV entry inhibitors” (priority 2013, dated 2017).
Read-outs that look alike come from different tables or passages of the source.

Tested on: HCV pseudoparticles, genotype 1a HCV E1 and E2 envelope (H77C isolate)
Assay: HCV pseudoparticle infection assay (luciferase reporter, Huh7 cells)
Assay type: cell-based, HCV genotype 1a (H77C)
Details: Hepatitis C virus, Huh-7, 48 h
[1] = read-out: EC50 (nM) 1a (H77C), HCV pseudoparticle entry into Huh7 cells, luciferase measured 2 days after infection, average of duplicates
[2] = read-out: EC50 (nM) 1a (H77C), class symbol, HCV pseudoparticle entry into Huh7 cells, luciferase measured 2 days after infection

SMILES	EC50 [1] [nM]	EC50 [2] [nM]
O=C1c2ccc(cc2)Nc2nc(nc(OCC(F)(F)F)n2)NCc2ccc(cc2)OCCCN2CCC3(CCN1C3)C2 (stereo not drawn) [Example 1001]	160	10 to 1000
O=C1c2ccc(cc2)Nc2nc(nc(OCC(F)(F)F)n2)NCc2ccc(cc2)OCCCN2CCCNCCCN1CCC2 [Example 1002]	5.32	0.01 to 10
C=C1CNCC2CN(C2)C(=O)c2ccc(cc2)Nc2nc(nc(OCC(F)(F)F)n2)NCc2ccc(cc2)OC1 [Example 2001]	–	0.01 to 10
C=C1COc2ccc(cc2)CNc2nc(nc(OCC(F)(F)F)n2)Nc2ccc(cc2)C(=O)N2CCCN(CC2)C1 [Example 2002]	–	10 to 1000
C=C1COc2ccc(cc2)CNc2nc(nc(OCC(F)(F)F)n2)Nc2ccc(cc2)C(=O)N2CC3(CN(C1)C3)C2 [Example 2003]	3.08	0.01 to 10
C=C1COc2ccc(cc2)CNc2nc(nc(OCC(F)(F)F)n2)Nc2ccc(cc2)C(=O)N2CC3CN(C1)CC3C2 [Example 2004]	–	10 to 1000
C[C@H]1CNC2C3CN(CC32)C(=O)c2ccc(cc2)Nc2nc(nc(OCC(F)(F)F)n2)NCc2ccc(cc2)OC1 [Example 3001]	–	10 to 1000
C[C@@H]1COc2ccc(cc2)CNc2nc(nc(OCC(F)(F)F)n2)Nc2ccc(cc2)C(=O)N2CC3CCN(CC3C2)C1 (stereo partly drawn) [Example 3002]	116	10 to 1000
C[C@@H]1COc2ccc(cc2)CNc2nc(nc(OCC(F)(F)F)n2)Nc2ccc(cc2)C(=O)N2CC3(C)CN(C1)CC(C)(C2)C3=O [Example 3003]	34.3	10 to 1000
CC1(C)CNC(=O)C(=O)Nc2ccc(cc2)OCCCCOc2ccc(cc2)CNc2nc(nc(OCC(F)(F)F)n2)Nc2ccc(cc2)C(=O)NC1 [Example 4001]	–	10 to 1000
CC1(C)CNC(=O)C(=O)Nc2ccc(cc2)OCCCOc2ccc(cc2)CNc2nc(nc(OCC(F)(F)F)n2)Nc2ccc(cc2)C(=O)NC1 [Example 4002]	–	0.01 to 10
CC1(C)CNC(=O)C(=O)Nc2ccc(cc2)OCCOc2ccc(cc2)CNc2nc(nc(OCC(F)(F)F)n2)Nc2ccc(cc2)C(=O)NC1 [Example 4003]	23.6	10 to 1000
CC1(C)CNC(=O)C(=O)Nc2ccc(cc2)OC/C=C/COc2ccc(cc2)CNc2nc(nc(OCC(F)(F)F)n2)Nc2ccc(cc2)C(=O)NC1 [Example 4004]	–	10 to 1000
CC1(C)CNC(=O)C(=O)Nc2ccc(cc2)OC/C=C\COc2ccc(cc2)CNc2nc(nc(OCC(F)(F)F)n2)Nc2ccc(cc2)C(=O)NC1 [Example 4005]	–	10 to 1000
CC1(C)CNCC2(COC2)COc2ccc(cc2)CNc2nc(nc(OCC(F)(F)F)n2)Nc2ccc(cc2)C(=O)NC1 [Example 5001]	0.796	0.01 to 10
O=C1NCC2(CNCCCOc3ccc(cc3)CNc3nc(nc(OCC(F)(F)F)n3)Nc3ccc1cc3)COC2 [Example 6001]	–	0.01 to 10
C[C@H]1CNCC2(CNC(=O)c3ccc(cc3)Nc3nc(nc(OCC(F)(F)F)n3)NCc3ccc(cc3)OC1)COC2 [Example 6002]	–	10 to 1000
O=C1NCCCNCC2(COC2)COc2ccc(cc2)CNc2nc(nc(OCC(F)(F)F)n2)Nc2ccc1cc2 [Example 6003]	–	0.01 to 10
C[C@@H]1CNCC2(CNC(=O)c3ccc(cc3)Nc3nc(nc(OCC(F)(F)F)n3)NCc3ccc(cc3)OC1)COC2 [Example 6004]	–	10 to 1000
O=C1NCC2(CC2)CNCC2(COC2)COc2ccc(cc2)CNc2nc(nc(OCC(F)(F)F)n2)Nc2ccc1cc2 [Example 6005]	–	0.01 to 10
